Assay results from ChEMBL document CHEMBL1150507, “New hydroxy-amido-anthraquinones as potential antineoplastic drugs” (1992).

What was measured:
HL-60 = test: Compound was tested for tumor cell growth inhibition against HL 60 cell line; assay type: functional; settings: Homo sapiens, read-out: ID50 (the source's name)
HeLa = test: Compound was tested for tumor cell growth inhibition against HeLa cell line; assay type: functional; settings: Homo sapiens, read-out: ID50 (the source's name)

Row | Structure (SMILES) | IC50 (HL-60) [µM] | IC50 (HeLa) [µM]
1 | CCN(CC)CCC(=O)Nc1ccc(O)c2c1C(=O)c1c(O)ccc(O)c1C2=O | 0.11 | 8.05
2 | CCN(CC)CC(=O)Nc1ccc(O)c2c1C(=O)c1c(O)ccc(O)c1C2=O | 1.64 | 26.1
3 | CCN(CC)CCC(=O)Nc1ccc(NC(=O)CCN(CC)CC)c2c1C(=O)c1c(O)ccc(O)c1C2=O | 0.1 | 3.14
4 | CCN(CC)CC(=O)Nc1ccc(NC(=O)CN(CC)CC)c2c1C(=O)c1c(O)ccc(O)c1C2=O | 4.9 | > 38
5 | O=C1c2c(O)ccc(O)c2C(=O)c2c(NCCNCCO)ccc(NCCNCCO)c21 [MITOXANTRONE] | 0.09 | 2.77
